Assay results taken from publication PMC9312958, “A Novel and Selective Dopamine Transporter Inhibitor, (S)-MK-26, Promotes Hippocampal Synaptic Plasticity and Restores Effort-Related Motivational Dysfunctions” (Biomolecules, 2022).

How the values were obtained:
[1] = molecular target: T1, hSERT (Homo sapiens, UniProt P31645); assay: hSERT radioligand binding assay (CHO cells, [3H]imipramine)
T1 construct: expressed in transfected cells
Method: (§1) Binding affinity to the hDAT, hNET and hSERT expressed in CHO cells was evaluated in in vitro radioligand binding assays. Binding assays were conducted according to the standard and validated protocols under conditions defined by the contractor (Eurofins Cerep SA, Celle-’Evescault, France; study number 100054410). Antagonist radioligand assays were conducted for the human norepinephrine, the human dopamine, and the serotonin transporters (using CHO cells), using [^3H]nisoxetine (1 nM), [^3H]BTCP (4 nM), and [^3H]imipramine (2 nM) as ligands and desipramine (1 µM), BTCP (10 µM), and imipramine (10 µM) as non-specific agents, respectively (with scintillation counting as detection method).

[2] = molecular target: T2, hDAT (Homo sapiens, UniProt Q01959); assay: hDAT radioligand binding assay (CHO cells, [3H]BTCP)
T2 construct: expressed in transfected cells
T2 sequence (Q01959 whole entry): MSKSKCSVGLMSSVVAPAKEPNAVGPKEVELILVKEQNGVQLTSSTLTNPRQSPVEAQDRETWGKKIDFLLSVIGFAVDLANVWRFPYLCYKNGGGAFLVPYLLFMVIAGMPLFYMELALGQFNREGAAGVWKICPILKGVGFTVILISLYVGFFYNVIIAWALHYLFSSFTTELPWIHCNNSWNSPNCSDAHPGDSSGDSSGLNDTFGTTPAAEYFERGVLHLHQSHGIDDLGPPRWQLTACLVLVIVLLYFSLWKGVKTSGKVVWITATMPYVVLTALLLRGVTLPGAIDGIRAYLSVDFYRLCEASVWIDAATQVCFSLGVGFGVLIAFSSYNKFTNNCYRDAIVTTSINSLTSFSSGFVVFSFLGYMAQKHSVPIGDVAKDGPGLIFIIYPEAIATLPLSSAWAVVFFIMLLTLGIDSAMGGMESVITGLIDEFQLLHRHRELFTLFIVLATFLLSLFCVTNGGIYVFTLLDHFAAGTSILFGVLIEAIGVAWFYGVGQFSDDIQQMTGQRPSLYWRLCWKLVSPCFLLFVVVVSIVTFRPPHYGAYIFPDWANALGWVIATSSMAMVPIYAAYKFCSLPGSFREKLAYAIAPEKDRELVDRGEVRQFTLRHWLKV
Method: as §1

[3] = molecular target: T2, hDAT; assay: Uptake inhibition assay in HEK293 cells expressing hDAT; type: cell-based
Method: Human embryonic kidney 293 cells (HEK293 cells) were cultivated in Dulbecco’s Modified Eagle Medium (DMEM), containing 10% heat-inactivated fetal calf serum (FCS; 100 mL/L), streptomycin (100 μg/100 mL) and penicillin ([…]). Geneticin (50 μg/mL) was added to select cells stably expressing the human isoforms of dopamine, norepinephrine and serotonin transporter (hDAT, hNET, and hSERT, respectively) as described earlier. Cell lines were maintained in culture in humidified atmosphere (37 °C, 5% CO2), and passaged when reached 80–90% confluency. Cells expressing the desired transporter were seeded the day before the experiment (40,000 cells per well) or two days before the experiments (20,000 cells per well) onto poly-D-lysine (PDL)-coated 96-well plates.
Uptake inhibition experiments were carried out as reported previously. Ninety-six-well plates containing hDAT-, hNET- or hSERT-expressing cells were washed with Krebs-HEPES buffer (KHB; 25 mM HEPES, 120 mM NaCl, 5 mM KCl, 1.2 mM CaCl2, and 1.2 mM MgSO4 and 5 mM D-glucose, pH = 7.3). Cells were then preincubated with increasing concentrations of the compound diluted in KHB for 6 min. Following the pre-incubation of the cells with the compound, the tritiated substrate (hDAT: 0.15 μM [^3H]DA; hNET: 0.05 μM [^3H]MPP^+; hSERT: 0.1 μM [^3H]5-HT) was added to the wells. The uptake was terminated by removal of tritiated substrate and by washing the cells with ice-cold KHB after 1 min (for hDAT and hSERT) or 3 min (for hNET). Thereafter, 200 μL of Ultima Gold^TM XR scintillation cocktail (PerkinElmer, MA, USA) was added, the plates were shaken and the radioactivity accumulated into the cells determined in a Wal-lac 1450 MicroBeta TriLux Liquid Scintillation Counter & Lumi (GMI, Ramsey, MN, USA). Non- specific tritiated substrate uptake was measured in the presence of 100 μM cocaine (for hDAT and hNET) or 10 μM paroxetine (for hSERT), and subtracted from the data. Uptake in the presence of test drugs was normalized to the uptake in the presence of the vehicle.

[4] = system: naive young (12 weeks) male rats; assay: Open field, spontaneous locomotor activity; type: in vivo, rat
Method: Animals were habituated to the experimental room twenty-four hours prior to the start of the experiment. The open field consisted of a black wooden board (1.20 m × 1.20 m) surrounded by white wooden walls (50 cm in height); light was adjusted to 150 lux. Each animal was placed in the middle of the open-field arena (animal experiments conducted under BMBWF-66.009/235/V/3b/2018 regulations) and behavior was recorded for 10 min. Data analysis was performed using the AnyMaze software (Stoelting Co., IL, USA). The test consisted of one habituation session on the first day and one test session on the following day. Each animal received (S)-MK-26 at 10, 20, 0 and 1 mg/kg of body weight with wash-out period of nine days between each treatment.

T1 sequence (P31645 whole entry): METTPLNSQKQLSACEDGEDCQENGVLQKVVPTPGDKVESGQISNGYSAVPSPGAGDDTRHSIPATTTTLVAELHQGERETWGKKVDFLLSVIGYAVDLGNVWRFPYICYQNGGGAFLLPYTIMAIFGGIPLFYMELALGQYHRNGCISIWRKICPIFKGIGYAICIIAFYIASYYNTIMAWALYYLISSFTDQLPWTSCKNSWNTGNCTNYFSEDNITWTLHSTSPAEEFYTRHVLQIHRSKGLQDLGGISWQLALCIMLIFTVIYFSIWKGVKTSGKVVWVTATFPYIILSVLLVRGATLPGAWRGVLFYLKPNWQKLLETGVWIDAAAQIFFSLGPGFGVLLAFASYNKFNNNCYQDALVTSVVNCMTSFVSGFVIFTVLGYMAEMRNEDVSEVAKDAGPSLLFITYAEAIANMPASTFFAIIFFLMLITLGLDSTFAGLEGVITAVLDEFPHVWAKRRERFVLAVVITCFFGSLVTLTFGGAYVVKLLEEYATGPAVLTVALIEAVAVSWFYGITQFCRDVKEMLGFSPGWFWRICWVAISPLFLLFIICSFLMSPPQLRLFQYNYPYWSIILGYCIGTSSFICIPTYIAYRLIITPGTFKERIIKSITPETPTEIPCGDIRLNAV

Structure (SMILES): [O-][S@@+](Cc1cncs1)C(c1cccc(Cl)c1)c1cccc(Cl)c1 [(S)-MK-26, (S)-5-(((B(3-chlorophenyl)methyl)sulphinyl)methyl)thiazole]
- binding to SERT [1]: trifling bindings
- Ki [2]: 26 nM
- IC50 [3]: 560 nM
- fold lower hDAT IC50 compared to (R)-MK-26 ([3]; uptake inhibition, HEK293): approximately 65 fold
- fold lower hDAT IC50 compared to (R)-Modafinil ([3]; uptake inhibition, HEK293): 10 fold
- effect on total distance travelled over 10 min ([4]; 1, 10, 20 mg/kg vs vehicle): no effect
- activity (distance travelled) within the initial 5 min of the test session ([4]; highest dose (20 mg/kg), p = 0.0236): moderately increased activity
- stereotypic or anxiogenic behavior ([4]; open field, 1, 10, 20 mg/kg): did not induce stereotypic or anxiogenic behavior
